Inconclusive results and toxic doses are left out. Cut-off read from the data, not from the text of the source: active = T/C of 150% or more; inactive = T/C below 125%.
System: L1210 leukemia ip in BDF1 mice, survival T/C
Experiment: NCI In Vivo Anticancer Drug Screen. Data for tumor model L1210 Leukemia (intraperitoneal) in B6D2F1 (BDF1) mice
Details: endpoint: mean survival time, higher = longer survival
Summary of the method: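 Mice bearing the transplanted tumor received compound or vehicle. Survival of the treated group was divided by that of the vehicle-treated control group to give the ratio.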

[1] = dose: 100.0 mg/kg/injection, schedule: Q01DX001 (ip), vehicle: saline
[2] = dose: 200.0 mg/kg/injection, schedule: Q01DX001 (ip), vehicle: saline
[3] = dose: 400.0 mg/kg/injection, schedule: Q01DX001 (ip), vehicle: saline
[4] = dose: 50.0 mg/kg/injection, schedule: Q01DX009 (ip), vehicle: saline
[5] = dose: 100.0 mg/kg/injection, schedule: Q01DX009 (ip), vehicle: saline
[6] = dose: 100.0 mg/kg/injection, schedule: Q01DX009 (ip), vehicle: Klucel (hydroxypropylcellulose) (HPC)
[7] = dose: 100.0 mg/kg/injection, schedule: Q04DX003 (ip), vehicle: saline with Tween-80
[8] = dose: 200.0 mg/kg/injection, schedule: Q01DX009 (ip), vehicle: saline
[9] = dose: 200.0 mg/kg/injection, schedule: Q04DX003 (ip), vehicle: saline with Tween-80
[10] = dose: 400.0 mg/kg/injection, schedule: Q04DX003 (ip), vehicle: saline with Tween-80
[11] = dose: 100.0 mg/kg/injection, schedule: Q01DX009 (ip), vehicle: saline with Tween-80
[12] = dose: 200.0 mg/kg/injection, schedule: Q01DX009 (ip), vehicle: saline with Tween-80

Measured: T/C

O=S(=O)(O)CC1(CS(=O)(=O)O)COC1
inactive: [1] 95 % of control | dose: 100.0 mg/kg/injection, schedule: Q01DX009 (ip), vehicle: acetone 118 % of control | [2] 95 % of control | dose: 200.0 mg/kg/injection, schedule: Q01DX009 (ip), vehicle: acetone 106 % of control | [3] 96 % of control | dose: 400.0 mg/kg/injection, schedule: Q01DX009 (ip), vehicle: acetone 95 % of control

CNC(Cl)(Cl)NC
inactive: [4] 90 % of control | [5] 87 % of control | dose: 100.0 mg/kg/injection, schedule: Q04DX002 (ip), vehicle: saline 86 % of control | dose: 200.0 mg/kg/injection, schedule: Q04DX002 (ip), vehicle: saline 88 % of control

O=C(NCCCl)Nc1ccc2c3c(cccc13)CC2
inactive: [6] 87 % of control | dose: 200.0 mg/kg/injection, schedule: Q04DX003 (ip), vehicle: Klucel (hydroxypropylcellulose) (HPC) 95 % of control

CC(=C(C#N)C#N)c1ccc(Cl)cc1
inactive: dose: 12.5 mg/kg/injection, schedule: Q01DX001 (ip), vehicle: Klucel (hydroxypropylcellulose) (HPC) 112 % of control | dose: 25.0 mg/kg/injection, schedule: Q01DX001 (ip), vehicle: Klucel (hydroxypropylcellulose) (HPC) 91 % of control | dose: 50.0 mg/kg/injection, schedule: Q01DX001 (ip), vehicle: Klucel (hydroxypropylcellulose) (HPC) 112 % of control | dose: 100.0 mg/kg/injection, schedule: Q04DX003 (ip), vehicle: Klucel (hydroxypropylcellulose) (HPC) 108 % of control

CCOC(=O)c1sc(NC(C)=O)c(C(=O)OCC)c1C
inactive: [5] 96 % of control | [7] 98 % of control | [8] 101 % of control | [9] 114 % of control | dose: 400.0 mg/kg/injection, schedule: Q01DX009 (ip), vehicle: saline 101 % of control | [10] 96 % of control

N#CC(Nc1c(N)nc(-c2ccccc2)nc1N)c1ccc(N(CCCl)CCCl)cc1 (configuration not stated)
inactive: dose: 50.0 mg/kg/injection, schedule: Q01DX001 (ip), vehicle: carboxymethylcellulose (CMC) 100 % of control | dose: 100.0 mg/kg/injection, schedule: Q01DX001 (ip), vehicle: carboxymethylcellulose (CMC) 115 % of control | dose: 200.0 mg/kg/injection, schedule: Q01DX001 (ip), vehicle: carboxymethylcellulose (CMC) 100 % of control | dose: 400.0 mg/kg/injection, schedule: Q01DX001 (ip), vehicle: carboxymethylcellulose (CMC) 105 % of control

Cc1cc(C)c(S(=O)(=O)c2ccc([N+](=O)[O-])c3ccccc23)c(C)c1
inactive: dose: 100.0 mg/kg/injection, schedule: Q01DX001 (ip), vehicle: Klucel (hydroxypropylcellulose) (HPC) 107 % of control | dose: 200.0 mg/kg/injection, schedule: Q01DX001 (ip), vehicle: Klucel (hydroxypropylcellulose) (HPC) 91 % of control | dose: 400.0 mg/kg/injection, schedule: Q01DX001 (ip), vehicle: Klucel (hydroxypropylcellulose) (HPC) 101 % of control

CCC1CCCCN1CCNc1ccc(CO)c2sc3ccccc3c(=O)c12 (configuration not stated)
inactive: dose: 50.0 mg/kg/injection, schedule: Q01DX009 (ip), vehicle: Klucel (hydroxypropylcellulose) (HPC) 101 % of control | [6] 115 % of control | dose: 200.0 mg/kg/injection, schedule: Q01DX009 (ip), vehicle: Klucel (hydroxypropylcellulose) (HPC) 120 % of control

COc1cccc2c1C(=O)c1c(O)c3c(c(O)c1C2=O)CC(O)(C(C)=O)CC3O (configuration not stated)
inactive: dose: 0.16 mg/kg/injection, schedule: Q01DX009 (ip), vehicle: saline with Tween-80 103 % of control | dose: 0.16 mg/kg/injection, schedule: Q03HX008 (ip), vehicle: saline with Tween-80 100 % of control | dose: 0.32 mg/kg/injection, schedule: Q01DX009 (ip), vehicle: saline with Tween-80 90 % of control | dose: 0.32 mg/kg/injection, schedule: Q03HX008 (ip), vehicle: saline with Tween-80 97 % of control | dose: 0.63 mg/kg/injection, schedule: Q01DX009 (ip), vehicle: saline with Tween-80 99 % of control | dose: 0.63 mg/kg/injection, schedule: Q03HX008 (ip), vehicle: saline with Tween-80 100 % of control | dose: 1.25 mg/kg/injection, schedule: Q01DX009 (ip), vehicle: saline with Tween-80 94 % of control | dose: 1.25 mg/kg/injection, schedule: Q03HX008 (ip), vehicle: saline with Tween-80 95 % of control | dose: 2.5 mg/kg/injection, schedule: Q01DX009 (ip), vehicle: saline with Tween-80 91 % of control | dose: 2.5 mg/kg/injection, schedule: Q03HX008 (ip), vehicle: saline with Tween-80 95 % of control | dose: 5.0 mg/kg/injection, schedule: Q01DX001 (ip), vehicle: saline 102 % of control | dose: 5.0 mg/kg/injection, schedule: Q01DX009 (ip), vehicle: saline with Tween-80 101 % of control | dose: 5.0 mg/kg/injection, schedule: Q03HX008 (ip), vehicle: saline with Tween-80 97 % of control | dose: 10.0 mg/kg/injection, schedule: Q01DX001 (ip), vehicle: saline 94 % of control | dose: 10.0 mg/kg/injection, schedule: Q01DX009 (ip), vehicle: saline with Tween-80 100 % of control | dose: 10.0 mg/kg/injection, schedule: Q03HX008 (ip), vehicle: saline with Tween-80 90 % of control | dose: 20.0 mg/kg/injection, schedule: Q01DX001 (ip), vehicle: saline with Tween-80 100 % of control | dose: 20.0 mg/kg/injection, schedule: Q01DX001 (ip), vehicle: saline 105 % of control | dose: 20.0 mg/kg/injection, schedule: Q04DX003 (ip), vehicle: saline with Tween-80 96 % of control | dose: 40.0 mg/kg/injection, schedule: Q01DX001 (ip), vehicle: saline with Tween-80 100 % of control | dose: 40.0 mg/kg/injection, schedule: Q01DX001 (ip), vehicle: saline 105 % of control | dose: 40.0 mg/kg/injection, schedule: Q04DX003 (ip), vehicle: saline with Tween-80 103 % of control | dose: 80.0 mg/kg/injection, schedule: Q01DX001 (ip), vehicle: saline with Tween-80 102 % of control | dose: 80.0 mg/kg/injection, schedule: Q04DX003 (ip), vehicle: saline with Tween-80 102 % of control | dose: 160.0 mg/kg/injection, schedule: Q01DX001 (ip), vehicle: saline with Tween-80 105 % of control | dose: 160.0 mg/kg/injection, schedule: Q04DX003 (ip), vehicle: saline with Tween-80 103 % of control

ClC(Cl)(Cl)SN1CCOCC1
inactive: [4] 106 % of control | [5] 95 % of control | [8] 104 % of control

CCCCCC(CC)C(CC)CO (configuration not stated)
inactive: dose: 15.0 mg/kg/injection, schedule: Q01DX001 (ip), vehicle: carboxymethylcellulose (CMC) 95 % of control | dose: 30.0 mg/kg/injection, schedule: Q01DX001 (ip), vehicle: carboxymethylcellulose (CMC) 96 % of control | dose: 60.0 mg/kg/injection, schedule: Q01DX001 (ip), vehicle: carboxymethylcellulose (CMC) 96 % of control

O=C(O)c1cc(Br)cc(Cl)c1Cl
inactive: dose: 100.0 mg/kg/injection, schedule: Q04DX002 (ip), vehicle: Klucel (hydroxypropylcellulose) (HPC) 100 % of control | dose: 200.0 mg/kg/injection, schedule: Q04DX002 (ip), vehicle: Klucel (hydroxypropylcellulose) (HPC) 103 % of control

Fc1cccc2ccccc12
inactive: [11] 105 % of control | [12] 87 % of control

O=C(Nc1ccc(S(=O)(=O)F)cc1)c1cccc([N+](=O)[O-])c1
inactive: [1] 101 % of control | [2] 100 % of control | [3] 97 % of control

CC(=O)Oc1cc(C=O)cc(OC(C)=O)c1OC(C)=O
inactive: [11] 106 % of control | [7] 106 % of control | [12] 118 % of control | [9] 121 % of control | dose: 400.0 mg/kg/injection, schedule: Q01DX009 (ip), vehicle: saline with Tween-80 90 % of control | [10] 108 % of control
